Assay results taken from ChEMBL document CHEMBL6121010, “Novel antileukemic compound with sub-micromolar potency against STAT5 addicted myeloid leukemia cells” (Eur J Med Chem, 2025).
pEC50: −log10 of the molar value.

test system: MOLM-13; assay: Antileukemic activity against human MOLM-13 assessed as cell viability incubated for 48 hrs by MTT assay; assay type: functional, cell-based; conditions: MOLM-13, 48 h

Going from `CC(C)(C)c1cc(CN(C(=O)CN(Cc2ccc(Cl)cc2)S(=O)(=O)c2c(F)c(F)c(F)c(F)c2F)c2ccc(C(=O)O)cc2)cc(C(C)(C)C)c1` to `O=c1[nH]c2ccccc2n1C1CCN(CCCC(c2ccc(F)cc2)c2ccc(F)cc2)CC1` [PIMOZIDE], the pEC50 falls from 5.55 to 5.23 (0.32 log units). The first is the more potent here.

Compared with `CC1(C)CCN(CCOc2ccc3[nH]ccc3c2)c2ccc(-c3cnc(N)nc3)cc21`, `CC1(C)CCN(CCOc2ccc3[nH]ccc3c2)c2ccc(-c3cccnc3)cc21` is 1.04 log units lower in pEC50: 6.52 for the first, 5.48 for the second. The first is the more potent here.

test system: K562; assay: Antileukemic activity against human K562 assessed as cell viability incubated for 48 hrs by MTT assay; assay type: functional, cell-based; conditions: K562, 48 h

First: CC(C)(C)c1cc(CN(C(=O)CN(Cc2ccc(Cl)cc2)S(=O)(=O)c2c(F)c(F)c(F)c(F)c2F)c2ccc(C(=O)O)cc2)cc(C(C)(C)C)c1
Second: O=c1[nH]c2ccccc2n1C1CCN(CCCC(c2ccc(F)cc2)c2ccc(F)cc2)CC1 [PIMOZIDE]
The pEC50 of the first is 0.46 log units lower: 5.00 for the first, 5.46 for the second. The second is the more potent here.

Going from `CC1(C)CCN(CCOc2ccc3[nH]ccc3c2)c2ccc(-c3cnc(N)nc3)cc21` to `CC1(C)CCN(CCOc2ccc3[nH]ccc3c2)c2ccc(-c3cccnc3)cc21`, the pEC50 falls from 5.54 to 5.06 (0.48 log units). The first is the more potent here.

test system: not listed separately; assay: Cytotoxicity against Bone marrow cell (unknown origin) assessed as cell viability incubated for 48 hrs by MTT assay; assay type: toxicity, cell-based; conditions: bone marrow cells (unknown origin)

`CC(C)(C)c1cc(CN(C(=O)CN(Cc2ccc(Cl)cc2)S(=O)(=O)c2c(F)c(F)c(F)c(F)c2F)c2ccc(C(=O)O)cc2)cc(C(C)(C)C)c1` and `O=c1[nH]c2ccccc2n1C1CCN(CCCC(c2ccc(F)cc2)c2ccc(F)cc2)CC1` [PIMOZIDE] are within 1.5-fold of each other in EC50 at 48 h: 18.1 µM for the first, 18.2 µM for the second.

First: CC1(C)CCN(CCOc2ccc3[nH]ccc3c2)c2ccc(-c3cnc(N)nc3)cc21
Second: CC1(C)CCN(CCOc2ccc3[nH]ccc3c2)c2ccc(-c3cccnc3)cc21
The EC50 at 48 h of the first is 4-fold lower: 14.5 µM for the first, 57.6 µM for the second.

test system: MV4-11; assay: Antileukemic activity against human MV4-11 cell line assessed as inhibition of cell growth incubated for 48 hrs by MTT assay; assay type: functional, cell-based; conditions: MV4-11, 48 h

`CC1(C)CCN(CCOc2ccc3[nH]ccc3c2)c2cccc(-c3cnc(N)cn3)c21` and `CC1(C)CCN(CCOc2ccc3[nH]ccc3c2)c2cccc(-c3cnccn3)c21` are within 0.2 log units of each other in pEC50: 4.84 for the first, 4.82 for the second.

`CC(C)(C)c1cc(CN(C(=O)CN(Cc2ccc(Cl)cc2)S(=O)(=O)c2c(F)c(F)c(F)c(F)c2F)c2ccc(C(=O)O)cc2)cc(C(C)(C)C)c1` and `O=c1[nH]c2ccccc2n1C1CCN(CCCC(c2ccc(F)cc2)c2ccc(F)cc2)CC1` [PIMOZIDE] are within 0.2 log units of each other in pEC50: 5.59 for the first, 5.49 for the second.

First: CC1(C)CCN(CCOc2ccc3[nH]ccc3c2)c2ccc(-c3cnc(N)nc3)cc21
Second: CC1(C)CCN(CCOc2ccc3[nH]ccc3c2)c2ccc(-c3cnc(Cl)nc3)cc21
The pEC50 of the first is 0.78 log units higher: 6.40 for the first, 5.62 for the second.

`CC1(C)CCN(CCOc2ccc3[nH]ccc3c2)c2ccc(-c3cncnc3)cc21` and `CC1(C)CCN(CCOc2ccc3[nH]ccc3c2)c2ccc(-c3cccnc3)cc21` are within 0.2 log units of each other in pEC50: 5.38 for the first, 5.44 for the second.

First: CC1(C)CCN(CCOc2ccc3[nH]ccc3c2)c2cccc(Cc3cccnc3)c21
Second: CC1(C)CCN(CCOc2ccc3[nH]ccc3c2)c2cccc(Cc3ccncc3)c21
The pEC50 of the first is 0.38 log units lower: 5.51 for the first, 5.89 for the second. The second is the more potent here.

First: CC1(C)CCN(CCOc2ccc3[nH]ccc3c2)c2ccc(Cc3ccncc3)cc21
Second: CC1(C)CCN(CCOc2ccc3[nH]ccc3c2)c2cc(Cc3ccncc3)ccc21
The pEC50 of the first is 0.25 log units lower: 4.59 for the first, 4.84 for the second.

Going from `CC1(C)CCN(CCOc2ccc3[nH]ccc3c2)c2ccc(-c3cnccn3)cc21` to `CC1(C)CCN(CCOc2ccc3[nH]ccc3c2)c2ccc(-c3cnc(N)cn3)cc21`, the pEC50 falls from 5.11 to 4.86 (0.25 log units).

Compared with `CC1(C)CCN(CCOc2ccc3[nH]ccc3c2)c2cccc(-c3cnc(C#N)nc3)c21`, `CC1(C)CCN(CCOc2ccc3[nH]ccc3c2)c2cccc(-c3cnc(Cl)nc3)c21` is 0.24 log units lower in pEC50: 5.29 for the first, 5.05 for the second. The first is the more potent here.

Compared with `CC1(C)CCN(CCOc2ccc3[nH]ccc3c2)c2cccc(-c3cncnc3)c21`, `CC1(C)CCN(CCOc2ccc3[nH]ccc3c2)c2cccc(-c3cccnc3)c21` is 0.95 log units higher in pEC50: 4.28 for the first, 5.23 for the second.

Going from `CC1(C)CCN(CCOc2ccc3[nH]ccc3c2)c2cc(Cc3ccccn3)ccc21` to `CC1(C)CCN(CCOc2ccc3[nH]ccc3c2)c2ccc(Cc3ccccn3)cc21`, the pEC50 rises from 4.47 to 5.11 (0.64 log units).

Going from `CC1(C)CCN(CCOc2ccc3[nH]ccc3c2)c2cc(Cc3cccnc3)ccc21` to `CC1(C)CCN(CCOc2ccc3[nH]ccc3c2)c2ccc(Cc3cccnc3)cc21`, the pEC50 rises from 4.69 to 5.31 (0.62 log units). The second is the more potent here.

Compared with `CC1(C)CCN(CCOc2ccc3[nH]ccc3c2)c2cccc(Cc3ccccn3)c21`, `CC1(C)CCN(CCOc2ccc3[nH]ccc3c2)c2cccc(-c3ccncc3)c21` is 0.64 log units higher in pEC50: 4.91 for the first, 5.55 for the second.

`CC1(C)CCN(CCOc2ccc3[nH]ccc3c2)c2cccc(-c3ccnnc3)c21` and `CC1(C)CCN(CCOc2ccc3[nH]ccc3c2)c2ccc(-c3ccnnc3)cc21` are within 0.2 log units of each other in pEC50: 4.85 for the first, 4.80 for the second.

`CC1(C)CCN(CCOc2ccc3[nH]ccc3c2)c2ccc(-c3cnc(C#N)nc3)cc21` and `CC1(C)CCN(CCOc2ccc3[nH]ccc3c2)c2ccc(-c3ncccn3)cc21` are within 0.2 log units of each other in pEC50: 5.46 for the first, 5.35 for the second.

test system: not listed separately; assay: Cytotoxicity against human HS-27A assessed as cell viability incubated for 48 hrs by MTT assay; assay type: toxicity, cell-based; conditions: HS-27A cells

Going from `CC(C)(C)c1cc(CN(C(=O)CN(Cc2ccc(Cl)cc2)S(=O)(=O)c2c(F)c(F)c(F)c(F)c2F)c2ccc(C(=O)O)cc2)cc(C(C)(C)C)c1` to `O=c1[nH]c2ccccc2n1C1CCN(CCCC(c2ccc(F)cc2)c2ccc(F)cc2)CC1` [PIMOZIDE], the EC50 at 48 h rises from 27.8 µM to 57.5 µM (2.1-fold).

`CC1(C)CCN(CCOc2ccc3[nH]ccc3c2)c2ccc(-c3cnc(N)nc3)cc21` and `CC1(C)CCN(CCOc2ccc3[nH]ccc3c2)c2ccc(-c3cccnc3)cc21` are within 1.5-fold of each other in EC50 at 48 h: 43.9 µM for the first, 63.3 µM for the second.

test system: KCL-22; assay: Antileukemic activity against human KCL-22 assessed as cell viability incubated for 48 hrs by MTT assay; assay type: functional, cell-based; conditions: KCL-22, 48 h

First: CC(C)(C)c1cc(CN(C(=O)CN(Cc2ccc(Cl)cc2)S(=O)(=O)c2c(F)c(F)c(F)c(F)c2F)c2ccc(C(=O)O)cc2)cc(C(C)(C)C)c1
Second: O=c1[nH]c2ccccc2n1C1CCN(CCCC(c2ccc(F)cc2)c2ccc(F)cc2)CC1 [PIMOZIDE]
The pEC50 of the first is 0.21 log units lower: 4.82 for the first, 5.03 for the second.

Compared with `CC1(C)CCN(CCOc2ccc3[nH]ccc3c2)c2ccc(-c3cnc(N)nc3)cc21`, `CC1(C)CCN(CCOc2ccc3[nH]ccc3c2)c2ccc(-c3cccnc3)cc21` is 1.27 log units lower in pEC50: 6.52 for the first, 5.25 for the second.

test system: KU812 cell line; assay: Antileukemic activity against human KU812 cell line assessed as inhibition of cell growth incubated for 48 hrs by MTT assay; assay type: functional, cell-based; conditions: KU812, 48 h

Compared with `CC1(C)CCN(CCOc2ccc3[nH]ccc3c2)c2cccc(-c3cnc(N)cn3)c21`, `CC1(C)CCN(CCOc2ccc3[nH]ccc3c2)c2cccc(-c3cnccn3)c21` is 0.26 log units lower in pEC50: 4.67 for the first, 4.41 for the second. The first is the more potent here.

`CC(C)(C)c1cc(CN(C(=O)CN(Cc2ccc(Cl)cc2)S(=O)(=O)c2c(F)c(F)c(F)c(F)c2F)c2ccc(C(=O)O)cc2)cc(C(C)(C)C)c1` and `O=c1[nH]c2ccccc2n1C1CCN(CCCC(c2ccc(F)cc2)c2ccc(F)cc2)CC1` [PIMOZIDE] are within 0.2 log units of each other in pEC50: 5.37 for the first, 5.54 for the second.

First: CC1(C)CCN(CCOc2ccc3[nH]ccc3c2)c2ccc(-c3cnc(N)nc3)cc21
Second: CC1(C)CCN(CCOc2ccc3[nH]ccc3c2)c2ccc(-c3cnc(Cl)nc3)cc21
The pEC50 of the first is 0.25 log units lower: 5.64 for the first, 5.89 for the second.

`CC1(C)CCN(CCOc2ccc3[nH]ccc3c2)c2ccc(-c3cncnc3)cc21` and `CC1(C)CCN(CCOc2ccc3[nH]ccc3c2)c2ccc(-c3cccnc3)cc21` are within 0.2 log units of each other in pEC50: 5.08 for the first, 5.27 for the second.

First: CC1(C)CCN(CCOc2ccc3[nH]ccc3c2)c2cccc(Cc3cccnc3)c21
Second: CC1(C)CCN(CCOc2ccc3[nH]ccc3c2)c2cccc(Cc3ccncc3)c21
The pEC50 of the first is 0.54 log units lower: 5.03 for the first, 5.57 for the second. The second is the more potent here.

First: CC1(C)CCN(CCOc2ccc3[nH]ccc3c2)c2ccc(Cc3ccncc3)cc21
Second: CC1(C)CCN(CCOc2ccc3[nH]ccc3c2)c2ccc(Cc3cccnc3)cc21
The pEC50 of the first is 0.61 log units lower: 4.67 for the first, 5.28 for the second.

First: CC1(C)CCN(CCOc2ccc3[nH]ccc3c2)c2ccc(-c3cnccn3)cc21
Second: CC1(C)CCN(CCOc2ccc3[nH]ccc3c2)c2ccc(-c3cnc(N)cn3)cc21
The pEC50 of the first is 0.21 log units lower: 4.32 for the first, 4.53 for the second. The second is the more potent here.

`CC1(C)CCN(CCOc2ccc3[nH]ccc3c2)c2cccc(-c3cnc(C#N)nc3)c21` and `CC1(C)CCN(CCOc2ccc3[nH]ccc3c2)c2cccc(-c3cnc(Cl)nc3)c21` are within 0.2 log units of each other in pEC50: 5.33 for the first, 5.17 for the second.

First: CC1(C)CCN(CCOc2ccc3[nH]ccc3c2)c2cccc(-c3cncnc3)c21
Second: CC1(C)CCN(CCOc2ccc3[nH]ccc3c2)c2cccc(-c3cccnc3)c21
The pEC50 of the first is lower: less than 4.00 for the first, 5.24 for the second.

Going from `CC1(C)CCN(CCOc2ccc3[nH]ccc3c2)c2cc(Cc3ccccn3)ccc21` to `CC1(C)CCN(CCOc2ccc3[nH]ccc3c2)c2ccc(Cc3ccccn3)cc21`, the pEC50 rises from less than 4.00 to 4.94. The second is the more potent here.

First: CC1(C)CCN(CCOc2ccc3[nH]ccc3c2)c2cc(Cc3cccnc3)ccc21
Second: CC1(C)CCN(CCOc2ccc3[nH]ccc3c2)c2ccc(-c3ccnnc3)cc21
The pEC50 of the first is 0.25 log units higher: 4.60 for the first, 4.35 for the second. The first is the more potent here.

Going from `CC1(C)CCN(CCOc2ccc3[nH]ccc3c2)c2cccc(Cc3ccccn3)c21` to `CC1(C)CCN(CCOc2ccc3[nH]ccc3c2)c2cccc(-c3ccncc3)c21`, the pEC50 rises from 4.13 to 5.60 (1.47 log units).

`CC1(C)CCN(CCOc2ccc3[nH]ccc3c2)c2cccc(-c3ccnnc3)c21` and `CC1(C)CCN(CCOc2ccc3[nH]ccc3c2)c2ccc(-c3ncccn3)cc21` are within 0.2 log units of each other in pEC50: 4.63 for the first, 4.53 for the second.

Work on `CC1(C)CCN(CCOc2ccc3[nH]ccc3c2)c2ccc(-c3cnc(C#N)nc3)cc21` yielded a pEC50 of 5.62.
